Patent publication US20230150951A1, “2,5- OR 2,6-DISUBSTITUTED HYDROQUINONE DERIVATIVES WITH AT LEAST ONE CARBOXY, SULFO OR AMIDO GROUP USEFUL AS MEDICAMENTS” (OM PHARMA SA, priority 2020, published 2023)
Values belong to the compound of their own block, whether it stands above or below them.

Assays:
COX2 (cycloxygenase-2) = target: T1, COX2 (cycloxygenase-2) (Homo sapiens, UniProt P35354); assay: Cyclooxygenase enzyme inhibition; assay type: biochemical
T1 sequence (P35354 18-604): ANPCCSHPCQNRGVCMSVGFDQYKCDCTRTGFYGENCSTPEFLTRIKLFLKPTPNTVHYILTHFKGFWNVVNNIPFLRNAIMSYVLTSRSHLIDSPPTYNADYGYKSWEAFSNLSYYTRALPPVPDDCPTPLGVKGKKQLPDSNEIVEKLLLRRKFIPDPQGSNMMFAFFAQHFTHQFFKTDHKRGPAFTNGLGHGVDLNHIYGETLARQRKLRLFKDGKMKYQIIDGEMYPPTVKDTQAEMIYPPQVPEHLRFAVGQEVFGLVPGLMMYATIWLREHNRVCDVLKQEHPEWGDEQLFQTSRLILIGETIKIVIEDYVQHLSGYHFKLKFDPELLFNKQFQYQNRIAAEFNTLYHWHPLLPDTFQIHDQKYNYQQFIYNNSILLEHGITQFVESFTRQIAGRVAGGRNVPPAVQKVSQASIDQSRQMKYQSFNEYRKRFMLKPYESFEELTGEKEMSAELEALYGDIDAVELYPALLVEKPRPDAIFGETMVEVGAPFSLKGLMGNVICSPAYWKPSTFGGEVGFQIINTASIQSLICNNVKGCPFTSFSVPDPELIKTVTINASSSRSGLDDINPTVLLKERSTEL

[1] = system: STZ-induced diabetes model; assay: STZ-induced diabetes and diabetic wound healing model; assay type: in vivo, CD-1 mice; conditions: IV; vs induced vehicle controls
Method: Diabetes murine models using streptozotocin (STZ-induced diabetes) were used to assess efficacy of compounds of the present invention for a diabetic wound healing and generate tissue samples to allow post in-life analysis of skin tissue.
These were purchased from Charles River and acclimated for 7 days upon arrival.
Aseptic technique and dosing: Although animals to be used in this study are immuno-competent, preparation of dosing solutions and dosing/weighing of animals were carried out in a sterile biosafety cabinet. IV dosing: Compounds were formulated in 5% DMSO: 10% Solutol: 10% PEG400: 75% PBS and pH adjusted to 7 with 0.5M NaOH solution. PO dosing: formulation is in water.
Animals were anaethetised and a full thickness 6 mm wound created using a sterilized biopsy punch. Wounds were imaged (Days 0). Animals were treated and imaged every 2 days out to day 14 (when control, non-diabetic mouse wounds were healed). Wound images were digitally assessed for area of wound and percentage closure versus time plotted graphically.
Treatment will continue for 2 weeks (14 days). Animal numbers in brackets are dosed for 7 days, then sampled for mid-study PD analysis.
Mid Study sampling: Following 7 days dosing 3 animals per group were killed and wound tissue removed and divided into 2 sections (A) and (B):
(A) First section is FFPE and stained with the following: H&E, Masson's Trichrome, CD31, TGF-β.
(B) Second section are homogenised and used for the following ELISAs: SOD, GTPx, Catalase, TNF-α, IL-6, TGF-β levels.

human primary cells = assay: BioMap Plus phenotypic profiling in human primary cell-based systems; conditions: 30, 10, 3.3, 1.1 μM
Method: A series of in vitro assays was performed using human primary cell-based assays modeling complex tissue and disease biology of organs (vasculature, immune system, skin, lung) and general tissue biology for phenotypic profiling of compounds in conditions that preserve crosstalk and feedback mechanisms relevant to in vivo outcomes.

ARPE-19 cells = assay: Outer blood retinal barrier: ARPE-19 monolayer permeability to FITC-dextran; assay type: cell-based, human; conditions: for p < 0.05 (ARPE19 permeability versus diabetic milieu): IL-β, after 90 min
From the text: The mechanisms of actions involved in the anti-permeability effect of the tested treatments were explored by assessing permeability to fluorescent dextran and proinflammatory cytokines production using their mRNA expression levels by RT-PCR.
Outer Blood Retinal Barrier conditions: human retinal pigment epithelial cells (RPE) cultures ARPE-19, a spontaneously immortalised human RPE cell line were obtained from American Type Culture Collection (Manassas, Va., USA). ARPE-19 cells and they were cultured in euglycaemic conditions (D-glucose (D-Glc), 5.5 mmol/L) and hyperglycaemic conditions (D-glucose, 25 mmol/L) for 18 days at 37° C. under 5% (vol./vol.) CO2 in medium (DMEM/F12) supplemented with 10% (vol./vol.) FBS (Hyclone; Thermo Fisher Scientific, UT, USA) and 1% (vol./vol.) penicillin/streptomycin (Hyclone; Thermo Fisher Scientific). ARPE-19 cells from passage 20 were used and the medium changed every 3-4 days. For permeability studies, ARPE-19 cells were seeded at 400,000 cells/ml (80,000 RPE cells/well) in 0.33 cm^2 HTS-Transwells (Costar; Corning, N.Y., USA). For real-time PCR, western blot analysis and immunofluorescence cells are seeded at 20,000 cells/ml.
Experimental conditions and treatments: apart from the euglycemic condition, eighteen different conditions were tested in cells cultured under 25 mmol/L D-glucose:
Condition 2) Cells are treated with diabetic milieu 25 mM D-Glucose+vehicle (days 15, 16 and 17 at one application/day) in order to evaluate their effect in preventing the cell damage provoked by the diabetic milieu.
Condition 9) Cells were treated with 25 mM D-Glucose and bevacizumab (0.2 mg/ml) for 72 h (days 15, 16 and 17 at one application/day) to evaluate their potential cytotoxic effects.
Condition 10)=Diabetic milieu; cells were treated with 25 mM D-Glucose+[…] (10 ng/ml)+TNF-α (25 ng/ml)+VEGF (25 ng/ml), for 48 h (days 16 and 17 at one application/day) in order to provoke the disruption of the monolayer.
Condition 17) Cells are treated with diabetic milieu (25 mM D-Glucose+IL-1β (10 ng/ml)+TNF-α (25 ng/ml)+VEGF (25 ng/ml))+bevacizumab (0.2 mg/mL) (days 15, 16 and 17 at one application/day) in order to evaluate their effect in preventing the cell damage provoked by the diabetic milieu.
Measurement of ARPE-19 permeability: The permeability of RPE cells was determined at 18 days by measuring the apical-to basolateral movements of FITC-dextran (40 kDa) (Sigma, St Louis, […]., USA) following a procedure previously reported by Villarroel et al. Exp Eye Res, 2009, 89, 913-920.

[2] = No 3-5: 25 mM D-Gluc + compound 25 μg/mL
[3] = No 6-8: 25 mM D-Gluc + compound 50 μg/mL + VEGF, TNF-α, (so in the source)
[4] = No 11-13: 25 mM D-Gluc + compound 25 μg/mL + VEGF, TNF-α, (diabetic milieu)
[5] = No 11-13: compound 25 μg/mL + VEGF, TNF-α
[6] = No 14-16: 25 mM D-Gluc + compound 50 μg/mL + VEGF, TNF-α, (diabetic milieu)
[7] = No 14-16: compound 50 μg/mL + VEGF, TNF-α

Inhibition of COX2 (COX2 (cycloxygenase-2)): partially inhibition
Compound: O=C(O)c1cc(O)c(CN(Cc2cc(O)c(C(=O)O)cc2O)Cc2cc(O)c(C(=O)O)cc2O)cc1O [IIIc-061a, Tris(4-carboxy-2,5-dihydroxyphenylmethyl)amine]
Blood glucose levels [1]: significant reduction
Antiproliferative effects on human primary cells (human primary cells): did not have any antiproliferative effects
Cytotoxicity in BioMap Plus (human primary cells): not cytotoxic
Immunomodulatory activities (human primary cells): decreased sIL-17A
Inflammation-related activities (human primary cells): decreased I-TAC, MIG
Number of annotated readouts (human primary cells): six
Tissue remodeling activities (human primary cells): decreased Collagen I, Collagen III, PAI-1

Compound: O=C(O)c1cc(NC(=O)c2cc(O)cc(C(=O)Nc3ccc(O)c(C(=O)O)c3)c2O)ccc1O [IIc-007a, 5-(3-(3-carboxy-4-hydroxyphenylaminocarbonyl)-2,5-dihydroxybenzamido)-2-hydroxy benzoic acid]
Inhibition of COX2 (COX2 (cycloxygenase-2)): partially inhibition
% permeability ARPE19 (ARPE-19 cells; [2]): 66.1 ± 4.9%
% permeability ARPE19 (ARPE-19 cells; [3]): 113.1 ± 11.4%
% permeability ARPE19 (ARPE-19 cells; [4]): 114.7 ± 19.0%
p < 0.05 (ARPE19 permeability versus diabetic milieu) (ARPE-19 cells; [5]): * (* p < 0.05 for FITC dextran leakage measured after 90 min in [ng/mL/cm^2] in comparison with diabetic milieu (25 mM D-Gluose + VEGF, TNF-α, IL-β))
% permeability ARPE19 (ARPE-19 cells; [6]): 136.8 ± 13.0%
p < 0.05 (ARPE19 permeability versus diabetic milieu) (ARPE-19 cells; [7]): * (* p < 0.05 for FITC dextran leakage measured after 90 min in [ng/mL/cm^2] in comparison with diabetic milieu (25 mM D-Gluose + VEGF, TNF-α, IL-β))
Antiproliferative effects on human primary cells (human primary cells): did not have any antiproliferative effects
Cytotoxicity in BioMap Plus (human primary cells): not cytotoxic
Immunomodulatory activities (human primary cells): decreased sIL-10, sIL-2
Inflammation-related activities (human primary cells): decreased sTNFα, MIP-1α; increased IL-8; modulated MCP-1
Number of annotated readouts (human primary cells): 12
Tissue remodeling activities (human primary cells): decreased Collagen I, Collagen IV, Collagen III, PAI-1

Compound: O=C(O)c1cc(NC(=O)c2cc(O)c(C(=O)Nc3ccc(O)c(C(=O)O)c3)cc2O)ccc1O [Ic-007a, 5-(4-(3-carboxy-4-hydroxyphenylaminocarbonyl)-2,5-dihydroxybenzamido)-2-hydroxy benzoic acid]
Inhibition of COX2 (COX2 (cycloxygenase-2)): partially inhibition
% permeability ARPE19 (ARPE-19 cells; [2]): 75.2 ± 11.1%
% permeability ARPE19 (ARPE-19 cells; [3]): 107.3 ± 43.9%
% permeability ARPE19 (ARPE-19 cells; [4]): 103.7 ± 15.7%
p < 0.05 (ARPE19 permeability versus diabetic milieu) (ARPE-19 cells; [5]): * (* p < 0.05 for FITC dextran leakage measured after 90 min in [ng/mL/cm^2] in comparison with diabetic milieu (25 mM D-Gluose + VEGF, TNF-α, IL-β))
% permeability ARPE19 (ARPE-19 cells; [6]): 127.1 ± 13.5%
p < 0.05 (ARPE19 permeability versus diabetic milieu) (ARPE-19 cells; [7]): * (* p < 0.05 for FITC dextran leakage measured after 90 min in [ng/mL/cm^2] in comparison with diabetic milieu (25 mM D-Gluose + VEGF, TNF-α, IL-β))
Antiproliferative effects on human primary cells (human primary cells): antiproliferative to human primary T cells (30 μM) and fibroblasts (30 μM, 10 μM, 3.3 μM, 1.1 μM)
Cytotoxicity in BioMap Plus (human primary cells): not cytotoxic
Immunomodulatory activities (human primary cells): decreased CD40, M-CSF
Inflammation-related activities (human primary cells): decreased VCAM-1, sTNFα, MIP-1α, I-TAC, MIG; increased IL-8; modulated IP-10
Number of annotated readouts (human primary cells): 20
Tissue remodeling activities (human primary cells): decreased Collagen I, Collagen IV, TIMP-1, tPA, Collagen III, PAI-1, uPAR, bFGF

Inhibition of COX2 (COX2 (cycloxygenase-2)): partially inhibition
Compound: O=C(O)c1cc(O)cc(CS(=O)(=O)Cc2cc(O)cc(C(=O)O)c2O)c1O [IVc-059a, 3-((2,5-Dihydroxy-3-carboxyphenyl)methylsulfonylmethyl)-2,5-dihydroxybenzoic acid]
% permeability ARPE19 (ARPE-19 cells; [2]): 70.2 ± 8.8%
% permeability ARPE19 (ARPE-19 cells; [3]): 112.6 ± 19.8%
% permeability ARPE19 (ARPE-19 cells; [4]): 98.5 ± 36.5%
p < 0.05 (ARPE19 permeability versus diabetic milieu) (ARPE-19 cells; [5]): * (* p < 0.05 for FITC dextran leakage measured after 90 min in [ng/mL/cm^2] in comparison with diabetic milieu (25 mM D-Gluose + VEGF, TNF-α, IL-β))
% permeability ARPE19 (ARPE-19 cells; [6]): 130.4 ± 24.8%
Blood glucose levels [1]: significant reduction
Antiproliferative effects on human primary cells (human primary cells): antiproliferative to human primary endothelial cells (1.1 μM)
Cytotoxicity in BioMap Plus (human primary cells): not cytotoxic
Immunomodulatory activities (human primary cells): decreased sIL-10, sIL-2
Inflammation-related activities (human primary cells): decreased sTNFα
Number of annotated readouts (human primary cells): three

Compound: O=C(O)c1cc(O)c(C(=O)Nc2ccccc2C(=O)O)cc1O [Ia-001a, 4-(2-carboxyphenylaminocarbonyl)-2,5-dihydroxybenzoic acid]
Blood glucose levels [1]: significant reduction
